Test results as given in patent US20210121418A1, “TREATMENT OF PROTEINURIA” (SYNACT PHARMA APS, priority 2018, published 2021).

How the values were obtained:
[1] = tested on: Passive Heymann Nephritis; test: Passive Heymann Nephritis, experiment 1 (ip dosing); type: in vivo, rat; conditions: for FEAlb (fractional albumin excretion) reduced by: 10 mg/kg ip once daily; for proteinuria compared to control rats (vehicle): day 28 and day 42
Protocol: Passive Heymann Nephritis was introduced to Male Sprague-Dawley rats by administration of anti-Fx1A serum (PTX-002S, Probetex, San Antonio, Tex., USA) Probetex, lot 169-6H) on study day 0 (1 ml serum) and on study day 7 (0.25 serum) into the jugular vein by slow injection during isoflurane anaesthesia. […] Pharmacological intervention with control compound or test compound was initiated on day 14.
In one experiment (experiment 1) test compound 1 dissolved in isotonic saline was given once daily by intraperitoneal (ip) injections at a dose of 10 mg/kg (n=12) with animals treated with isotonic saline injections as controls (n=12).
In experiment 1 twenty-four hours urine collection were performed at three occasions, at day 14 following induction of nephritis, i.e. at the time point where pharmacological intervention was initiated, at day 28 and at day 42 following induction of nephritis. For urine collection the rats were placed in metabolic cages followed by a blood sample for measurement of plasma concentrations of creatinine and albumin. Likewise, the urine concentration of creatinine and albumin were determined and so was the volume of the 24-hours urine production.
The blood sample was taken from the abdominal vein during pentobarbital (0.2-0.3 mL/rat ip; Dolethal, Vetoquinol via Centravet, Lapalisse, France). The collected blood was transferred into tubes coated with EDTA and centrifuged (10 minutes, 1000 g, 4° C.) for plasma collection. Plasma samples were stored at −80° C. until quantification of creatinine and Albumin.
Albumin and creatinine in urine and plasma were quantified using a ABX Pentra 400 Clinical Chemistry analyzer (HORIBA).
Albumin excretion rate was determined as follows:
24 hours urine production×concentration of Albumin in urine.
Fractional Albumin excretion was determined as follows:
((Urine concentration of […]×24 hours urine production)/plasma concentration of albumin)/Creatinine Clearance×100
All data presented as mean±Standard error of mean (SE). Statistical analyses were made by standard unpaired t-test, with p<0.05 considered statistical significant

[2] = Effect of meal timing and apple juice on absorption of the suspension; type: in vivo
Protocol: The effect of food intake on the absorption of AP1189 in the current suspension formulation has not been systematically evaluated. However, it has been shown that the plasma profile of the compound, whether the first meal was served 1 hour or 4 hours post-dosing in the fasting state, is very similar.

melanocytes = conditions: cited from earlier work
MC3R = conditions: cited from earlier work
CYP1A2 = CYP1A2 induction in human hepatocyte; type: in vitro ADME; conditions: 10 μM
[3] = tested on: experimental inflammatory arthritis; conditions: in vivo; cited from earlier work
clinical [4] = conditions: human, plasma, oral, 200 mg
clinical [5] = conditions: male, human, plasma
[6] = tested on: Passive Heymann Nephritis; test: Passive Heymann Nephritis, experiment 2 (oral gavage vs ACTH(1-24)); type: in vivo, rat; conditions: 4 weeks treatment
Protocol: Passive Heymann Nephritis was introduced to Male Sprague-Dawley rats by administration of anti-Fx1A serum (PTX-002S, Probetex, San Antonio, Tex., USA) Probetex, lot 169-6H) on study day 0 (1 ml serum) and on study day 7 (0.25 serum) into the jugular vein by slow injection during isoflurane anaesthesia. […] In another experiment (experiment 2) test compound 1 was given once daily by oral gavage. […] In this experiment treatment effect of test compound 1 was compared to the effect of ACTH(1-24) as ACTH from the literature has been described to have treatment effects on proteinuria in the applied experimental model. […] Likewise, the urine concentration of creatinine and albumin were determined and so was the volume of the 24-hours urine production. The blood sample was taken from the abdominal vein during pentobarbital (0.2-0.3 mL/rat ip; Dolethal, Vetoquinol via […], France). The collected blood was transferred into tubes coated with EDTA and centrifuged (10 minutes, 1000 g, 4° C.) for plasma collection. Plasma samples were stored at -80° C. until quantification of creatinine and Albumin. […] Statistical analyses were made by standard unpaired t-test, with p<0.05 considered statistical significant

peritonitis = conditions: oral; cited from earlier work
[7] = Phase I Part I, single ascending dose, oral suspension (PK and safety)
[8] = Phase I Part IV, 14-day repeated dose, oral suspension (PK and safety); conditions: for C Max (mean +/− SD, N = 9) / C Trough (Mean +/− SD, N = 9): steady conditions
macrophages = conditions: cited from earlier work
MC1R = conditions: cited from earlier work

## NC(N)=N/N=C/C=C/c1cccn1-c1ccccc1[N+](=O)[O-] [AP1189, (E)-N-trans-{3-[1-(2-nitrophenyl)-1H-pyrrol-2-yl]-allylidene}-aminoguanidium acetate]
[1]; 10 mg/kg ip once daily from day 14, day 28
  reduction in albumin excretion rate: 31±8%
[1]; 10 mg/kg ip once daily from day 14, day 42
  reduction in albumin excretion rate: 48±10%
[1]; day 28
  FEAlb (fractional albumin excretion) reduced by: 48±5%
[1]; day 42
  FEAlb (fractional albumin excretion) reduced by: 45±11%
[1]
  proteinuria compared to control rats (vehicle): significantly reduces proteinuria
[1]; listed as test compound 1
  proteinuria compared to control rats (vehicle): significant reduction in proteinuria
[1]; day 482 as printed in FIG. 1 legend
  reduction in albumin excretion rate: 48±10%
[2]
  absorption with a glass of apple juice immediately after dosing: does not reduce the absorption
[2]; dosing in the fasting state
  plasma profile, first meal 1 hour or 4 hours post-dosing: very similar
melanocytes
  melanogenesis: no melanogenesis was induced
MC3R
  ERK1/2 phosphorylation: cause ERK1/2 phosphorylation
  canonical cAMP generation: does not induce canonical cAMP generation
CYP1A2
  CYP1A2 induction: signal for CYP1A2 induction has been observed
[3]
  macroscopic and histological parameters of joint disruption: significant reduction of macroscopic and histological parameters of joint disruption
Clinical [4]
  Cmax: ≤ 900 ng/mL
Clinical [5]; oral
  Vd/F: 556 to 784 L
  half-life: ~20 h
Clinical [5]; po
  Tmax: 1 to 4 h
[6]; 20 mg/kg oral gavage
  GFR (creatinine clearance): 3.12 ± 0.14 mL/min
  fraction albumin excretion (FEAlb): 0.045±0.04%
[6]; 40 mg/kg oral gavage
  fraction albumin excretion (FEAlb): 0.35±0.05%
peritonitis
  anti-inflammatory actions in peritonitis: elicits anti-inflammatory actions in peritonitis and accelerated the resolution phase
[7]; 400 mg
  Cmax and AUCs, female compared to male subjects: slightly increased
  apparent volume of distribution, female compared to male: similar
[7]; 800 mg
  exposure at maximum administrated dose above expected therapeutic exposure level: more than 10 ×
[7]; 400-800 mg
  increase of ALT above the normal upper value: up to 1.6
[7]; after administration of 200 to 800 mg
  TEAEs considered related to the study treatment: 21 events
[7]; female subjects, 400 mg
  apparent clearance: 17.26 L/h
[7]; in vivo
  QTcF and other cardiac parameters, 24-hours Holter ECG: No AP1189 associated increases in QTcF
  changes in vital signs: No treatment-related changes in vital signs
  frequency of related gastrointestinal TEAEs vs dose: increased with the dose
[7]; male subjects on active IMP, 400, 600, 800 mg
  subjects with isolated increases in aminotransferases: 4 subjects
[7]; male subjects, 50-800 mg
  inter-individual variability for Cmax and AUCs: < 36%
[7]; single doses 15-800 mg
  severe or serious adverse events: No severe AEs nor serious AEs were reported
[8]; 50 mg once daily
  C Max (mean +/− SD, N = 9): 180 ± 38 ng/mL
  C Trough (Mean +/− SD, N = 9): 46 ± 14 ng/mL
[8]; 100 mg once daily
  C Max (mean +/− SD, N = 9): 427 ± 76 ng/mL
  C Trough (Mean +/− SD, N = 9): 100 ± 25 ng/mL
[8]; 200 mg
  exposure at maximum administrated dose above expected therapeutic exposure level: 5 ×
[8]; 200 mg, group
  exposure based on Cmax vs expected therapeutic range: ≤ 5 ×
[8]; 200 mg, individual with the highest exposure
  exposure based on Cmax vs expected therapeutic range: more than 7 ×
[8]; 300 mg once daily
  C Trough (Mean +/− SD, N = 9): 186 ± 45 ng/mL
[8]; 50, 100 or 200 mg once daily, 14 days
  severe or serious adverse events: No severe AEs nor serious AEs were reported
[8]; Cohort 1, 50 mg once daily
  steady state achieved: 7 days
[8]; Cohort 2, 100 mg vs 50 mg
  peak increase compared to cohort 1: approximately 2 fold
[8]; Cohort 3 (200 mg), treated with active
  subjects with isolated increases in aminotransferases: 3 subjects
[8]; Cohort 3, 200 mg once daily
  time Cmax was reached post dosing: 1 to 2 h
[8]; for 50 mg or 100 mg doses for four weeks
  safety profile: good safety profile
[8]; gastrointestinal, 50 mg and 200 mg dose levels
  TEAEs considered possibly related to the study treatment: 4 events
[8]; in vivo
  QTcF, repeated standard 12 lead safety ECG: No individual QTcF clinically significant values were observed
macrophages
  cytokine release: reduce cytokine release
MC1R
  ERK1/2 phosphorylation: cause ERK1/2 phosphorylation
  canonical cAMP generation: does not induce canonical cAMP generation
